Measured values from patent US8362051B2, “Mold-resistant wallboard” (Rohm and Haas Company, priority 2007, dated 2013).

Experiments:
Assay type in all cases: cell-based
[1] = test system: mold; experiment: ASTM 3273 fungal growth test on paper sheets, biocide added to pulp slurry; parameters: key to ASTM 3273 rating Week 1: 0: 100% mold coverage; 1: 90%; 2: 80%; 3: 70%; 4: 60%; 5: 50%; 6: 40%; 7: 30%; 8: 20%; 9: 10%; 10: no mold growth coverage; 8: 20% mold coverage; 9: 10% mold coverage; 10: no mold growth; key to ASTM 3273 rating Week 2 / ASTM 3273 rating Week 3 / ASTM 3273 rating Week 4: 100% mold coverage; 1: 90% mold coverage; 2: 80% mold coverage; 3: 70% mold coverage; 4: 60% mold coverage; 50% mold coverage; 6: 40% mold coverage; 7: 30% mold coverage; 8: 20% mold coverage; 9: 10% mold coverage; 10: no mold growth; details: for ASTM 3273 rating Week 1 / ASTM 3273 rating Week 2 / ASTM 3273 rating Week 3 / ASTM 3273 rating Week 4: average of three sheets
Method: (§1) The biocides can be evaluated in the following examples by adding to a 0.4 wt % pulp slurry in water (100% recycle) typically used for gypsum wallboard facing paper. The slurry is filtered through a screen to drain the water from the stock and the resulting paper mat is blotted, couched, and dried to form a paper sheet with a basis weight of approximately 40 lb/1000 ft2. Three sheets per condition are prepared. High Performance Liquid Chromatography (HPLC) is used to determine the amount of biocide present in each sheet. The paper sheets are evaluated for fungal growth via ASTM 3273, currently the industry standard for mold-resistant wallboard, as well as the standard TAPPI T-487 fungal efficacy test.
(§2) The values in Tables 1 and 2 below represent data from samples made substantially according to the preceding protocol. The average concentration of active biocide in the paper and the average test rating based on three paper sheets are shown. Based on tables 1 and 2, approximately 4-4.5 times more DIMTS active was needed in the paper sheet than OIT before no mold growth was observed throughout the entire testing period.
(§3) For ASTM 3273, a 4-week test, the following rating scale applies: • 0—100% mold coverage • 1—90% mold coverage • 2—80% mold coverage • 3—70% mold coverage • 4—60% mold coverage • 5—50% mold coverage • 6—40% mold coverage • 7—30% mold coverage • 8—20% mold coverage • 9—10% mold coverage • 10—no mold growth For TAPPI T-487, a 3-week test, the following rating scale applies: • 0—no mold growth • 1—25% mold coverage • 2—50% mold coverage • 3—75% mold coverage • 4—100% mold coverage

[2] = test system: mold; experiment: TAPPI T-487 fungal efficacy test on paper sheets, biocide added to pulp slurry; parameters: key: coverage; 8: 20% mold coverage; 9: 10% mold coverage; 10: no mold growth; details: average of three sheets
Method: as §1, §2, §3

[3] = test system: mold; experiment: TAPPI T-487 test on surface-treated paper; parameters: key to TAPPI T-487 rating Week 1 / TAPPI T-487 rating Week 2 / TAPPI T-487 rating Week 3: 100% mold coverage; 1: 90% mold coverage; 2: 80% mold coverage; 3: 70% mold coverage; 4: 60% mold coverage; 50% mold coverage; 6: 40% mold coverage; 7: 30% mold coverage; 8: 20% mold coverage; 9: 10% mold coverage; 10: no mold growth; details: surface treatment, average of three sheets
Method: The papers of this example were prepared via surface treatment. The values in Table 3 below represent the average concentration of active biocide in the paper and the average […]-487 test rating based on three paper sheets.

[4] = test system: mold; experiment: ASTM-G21 Fungal Resistant Test Method on paper handsheets; parameters: key: 0: None; Traces of growth (<10%); 2: Light growth (10-30%); Medium growth (30-60%); 4: Heavy growth (60-complete coverage); details: for Mold Resistance Rating Week 1 A / Mold Resistance Rating Week 2 A: replicate A; for Mold Resistance Rating Week 1 B / Mold Resistance Rating Week 2 B: replicate B
Method: Results are compared with paper hand sheets incorporating DIMTS in the same manner, as well as handsheets with no biocide added. Handsheets are formed using a commercial handsheet mold which makes sheets 8×8 inches in area. The weights of the handsheets are 11-12 lbs/1000 ft^2 representing the typical basis weight of just the liner (outer facing plys) of the multi-ply wallboard paper. The 3:1 carbendazim/IPBC blend is added to the paper slurry (0.7 wt %) prior to forming the handsheets. Recycled news print paper is used as the source of fiber for handsheets. High Performance Liquid Chromatography (HPLC) is used to determine the amount of biocide present in each sheet, however, this method is not capable of detecting the levels of IPBC in the handsheets, therefore only carbendazim values are reported in Table 4 as weight of active (mg) per kg of paper. The handsheets are evaluated for fungal resistance using ASTM G21 over a two-week test period. A and B represent replicate analyses of same handsheet in Table 4.

Structure (SMILES): Cc1ccc(S(=O)(=O)C(I)I)cc1 [DIMTS, diiodomethyltolylsulfone]
- ASTM 3273 rating Week 1 ([1]; 370 ppm in paper sheet): 10
- ASTM 3273 rating Week 2 ([1]; 370 ppm in paper sheet): 8 (20% mold coverage)
- ASTM 3273 rating Week 3 ([1]; 370 ppm in paper sheet): 0 (100% mold coverage)
- ASTM 3273 rating Week 4 ([1]; 370 ppm in paper sheet): 0 (100% mold coverage)
- ASTM 3273 rating Week 1 ([1]; 660 ppm in paper sheet): 10
- ASTM 3273 rating Week 2 ([1]; 660 ppm in paper sheet): 8 (20% mold coverage)
- ASTM 3273 rating Week 3 ([1]; 660 ppm in paper sheet): 7 (30% mold coverage)
- ASTM 3273 rating Week 4 ([1]; 660 ppm in paper sheet): 6 (40% mold coverage)
- ASTM 3273 rating Week 1 ([1]; 1272 ppm in paper sheet): 10
- ASTM 3273 rating Week 2 ([1]; 1272 ppm in paper sheet): 10
- ASTM 3273 rating Week 3 ([1]; 1272 ppm in paper sheet): 10
- ASTM 3273 rating Week 4 ([1]; 1272 ppm in paper sheet): 10
- DIMTS active needed in the paper sheet relative to OIT before no mold growth was observed throughout the entire testing period ([1]; approximately, based on tables 1 and 2 (ASTM 3273 and TAPPI T-487)): 4-4.5 times
- TAPPI T-487 rating Week 1 ([2]; 386 ppm in paper sheet): 0
- TAPPI T-487 rating Week 2 ([2]; 386 ppm in paper sheet): 2 (50% mold coverage)
- TAPPI T-487 rating Week 3 ([2]; 386 ppm in paper sheet): 3 (75% mold coverage)
- TAPPI T-487 rating Week 1 ([2]; 553 ppm in paper sheet): 0
- TAPPI T-487 rating Week 2 ([2]; 553 ppm in paper sheet): 2 (50% mold coverage)
- TAPPI T-487 rating Week 3 ([2]; 553 ppm in paper sheet): 3 (75% mold coverage)
- TAPPI T-487 rating Week 1 ([2]; 855 ppm in paper sheet): 0
- TAPPI T-487 rating Week 2 ([2]; 855 ppm in paper sheet): 0
- TAPPI T-487 rating Week 3 ([2]; 855 ppm in paper sheet): 0
- TAPPI T-487 rating Week 1 ([3]; 43 ppm in paper): 2 (50% mold coverage)
- TAPPI T-487 rating Week 2 ([3]; 43 ppm in paper): 4 (100% mold coverage)
- TAPPI T-487 rating Week 3 ([3]; 43 ppm in paper): 4 (100% mold coverage)
- TAPPI T-487 rating Week 1 ([3]; 563 ppm in paper): 0
- TAPPI T-487 rating Week 2 ([3]; 563 ppm in paper): 0
- TAPPI T-487 rating Week 3 ([3]; 563 ppm in paper): 0
- TAPPI T-487 rating Week 1 ([3]; 5389 ppm in paper): 0
- TAPPI T-487 rating Week 2 ([3]; 5389 ppm in paper): 0
- TAPPI T-487 rating Week 3 ([3]; 5389 ppm in paper): 0
- Mold Resistance Rating Week 1 A ([4]; 281 ppm active in handsheet): 1 (Traces of growth (<10%))
- Mold Resistance Rating Week 1 B ([4]; 281 ppm active in handsheet): 1 (Traces of growth (<10%))
- Mold Resistance Rating Week 2 A ([4]; 281 ppm active in handsheet): 4 (Heavy growth (60-complete coverage))
- Mold Resistance Rating Week 2 B ([4]; 281 ppm active in handsheet): 4 (Heavy growth (60-complete coverage))
- Mold Resistance Rating Week 1 A ([4]; 297 ppm active in handsheet): 1 (Traces of growth (<10%))
- Mold Resistance Rating Week 1 B ([4]; 297 ppm active in handsheet): 1 (Traces of growth (<10%))
- Mold Resistance Rating Week 2 A ([4]; 297 ppm active in handsheet): 4 (Heavy growth (60-complete coverage))
- Mold Resistance Rating Week 2 B ([4]; 297 ppm active in handsheet): 4 (Heavy growth (60-complete coverage))
- Mold Resistance Rating Week 1 A ([4]; 354 ppm active in handsheet): 0
- Mold Resistance Rating Week 1 B ([4]; 354 ppm active in handsheet): 0
- Mold Resistance Rating Week 2 A ([4]; 354 ppm active in handsheet): 1 (Traces of growth (<10%))
- Mold Resistance Rating Week 2 B ([4]; 354 ppm active in handsheet): 1 (Traces of growth (<10%))
- Mold Resistance Rating Week 1 A ([4]; 732 ppm active in handsheet): 0
- Mold Resistance Rating Week 1 B ([4]; 732 ppm active in handsheet): 0
- Mold Resistance Rating Week 2 A ([4]; 732 ppm active in handsheet): 0
- Mold Resistance Rating Week 2 B ([4]; 732 ppm active in handsheet): 0
- Mold Resistance Rating Week 1 A ([4]; 748 ppm active in handsheet): 0
- Mold Resistance Rating Week 1 B ([4]; 748 ppm active in handsheet): 0
- Mold Resistance Rating Week 2 A ([4]; 748 ppm active in handsheet): 0
- Mold Resistance Rating Week 2 B ([4]; 748 ppm active in handsheet): 0
